This note sets out measurements from ChEMBL document CHEMBL1201862, “PubChem BioAssay data set” (2004).

Active and inactive are the calls of the source.

Series [1] concerns H9c2. In words: cells. Format: functional, cell-based. Conditions: Rattus norvegicus, H9c2, Myocardium.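 Also: confirmatory concentration-response retest of ultra-high-throughput screening hits for modulation of myocardial damage; cell death induced by hydrogen peroxide oxidative stress; compound pretreatment for 60 min then peroxide exposure for 2 h; potency is for protecting the cells against peroxide damage rather than for killing them.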
For series [2], the target named is Cytochrome P450 2C19 (Homo sapiens, UniProt P33261). In words: Cytochrome panel assay with activity outcomes. Panel member name: p450-cyp2c19 Compounds with AC50 equal or less than 10 uM are considered active. Format: functional.
Sequence of Cytochrome P450 2C19 (P33261 whole entry): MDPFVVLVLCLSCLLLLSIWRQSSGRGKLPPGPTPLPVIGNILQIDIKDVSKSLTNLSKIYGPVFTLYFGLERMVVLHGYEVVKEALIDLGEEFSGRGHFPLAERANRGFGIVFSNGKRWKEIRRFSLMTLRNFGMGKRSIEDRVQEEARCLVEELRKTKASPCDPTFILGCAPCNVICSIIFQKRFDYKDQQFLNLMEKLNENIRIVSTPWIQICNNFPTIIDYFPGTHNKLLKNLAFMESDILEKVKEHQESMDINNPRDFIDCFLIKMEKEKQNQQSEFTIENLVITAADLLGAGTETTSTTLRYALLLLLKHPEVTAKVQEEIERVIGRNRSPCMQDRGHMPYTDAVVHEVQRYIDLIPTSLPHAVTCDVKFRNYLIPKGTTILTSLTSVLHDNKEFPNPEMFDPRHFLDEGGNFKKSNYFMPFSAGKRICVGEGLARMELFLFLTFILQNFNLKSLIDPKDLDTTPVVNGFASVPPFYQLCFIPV
Series [3] is described as follows: inhibitors of intracellular T. cruzi replication, confirmation, NIH3T3 host cells, beta-gal luminescence (AID 2044).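 Also: intracellular parasites grown in NIH/3T3 mouse fibroblasts as host cells; luminescent beta-galactosidase reporter signal from transgenic T. cruzi replicating inside host cells; inhibitors lower the luminescence signal.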 Type of series: functional, cell-based.
Series [4] is described as follows: cytotoxicity toward NIH3T3 fibroblasts, dose response, counter-screen, cell-based, ATP luminescence, mouse fibroblasts (AID 2010).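 Also: cells exposed to compound for about 90 hours before reading.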 Format: functional. Background: Counterscreens check selectivity or assay interference.
Series [5] addresses T1, Cytochrome P450 1A2 (Homo sapiens, UniProt P05177).
T1 sequence (P05177 whole entry): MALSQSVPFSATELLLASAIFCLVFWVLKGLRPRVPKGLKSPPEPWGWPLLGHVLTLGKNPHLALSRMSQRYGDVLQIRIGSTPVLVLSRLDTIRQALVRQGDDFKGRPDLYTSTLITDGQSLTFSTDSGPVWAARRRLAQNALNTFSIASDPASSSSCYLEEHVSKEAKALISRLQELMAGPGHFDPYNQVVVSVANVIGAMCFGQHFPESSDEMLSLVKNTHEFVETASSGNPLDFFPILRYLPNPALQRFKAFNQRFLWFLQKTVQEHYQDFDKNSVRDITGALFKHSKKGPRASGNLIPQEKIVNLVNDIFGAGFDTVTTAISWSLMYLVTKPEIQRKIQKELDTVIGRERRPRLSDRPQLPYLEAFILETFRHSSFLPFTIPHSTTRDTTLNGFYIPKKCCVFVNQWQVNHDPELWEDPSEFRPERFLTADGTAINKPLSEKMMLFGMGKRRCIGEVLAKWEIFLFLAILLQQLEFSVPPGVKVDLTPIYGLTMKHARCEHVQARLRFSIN

Series [6] has as its target Cytochrome P450 2C9 (Homo sapiens, UniProt P11712).

Sequence of Cytochrome P450 2C9 (P11712 whole entry): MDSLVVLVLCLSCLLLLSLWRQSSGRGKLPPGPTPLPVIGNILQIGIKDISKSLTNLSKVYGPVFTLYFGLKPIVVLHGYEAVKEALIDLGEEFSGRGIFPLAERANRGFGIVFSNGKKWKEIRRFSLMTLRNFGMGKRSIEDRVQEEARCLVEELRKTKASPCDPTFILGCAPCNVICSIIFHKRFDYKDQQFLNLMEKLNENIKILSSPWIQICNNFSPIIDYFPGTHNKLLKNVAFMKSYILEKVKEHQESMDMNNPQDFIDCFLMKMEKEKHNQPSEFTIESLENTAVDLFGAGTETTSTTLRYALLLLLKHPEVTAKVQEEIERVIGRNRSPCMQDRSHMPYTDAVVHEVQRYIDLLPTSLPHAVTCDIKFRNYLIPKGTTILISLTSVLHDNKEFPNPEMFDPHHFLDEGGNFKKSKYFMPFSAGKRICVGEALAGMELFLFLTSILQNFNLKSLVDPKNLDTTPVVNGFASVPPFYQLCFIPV

On to `COc1ccc(CNn2c(-c3cccs3)nc3ccccc3c2=O)cc1OC`, for which the IC50 (commonly the concentration that gives 50% inhibition) in series [1] was 8.92 µM (active).
With `CCCCOc1ccc(-c2nnn(CC(=O)c3c[nH]c4ccccc34)n2)cc1`, the AC50 (commonly the concentration at which the activity in the assay is half-maximal) in series [2] (read-out: AC50) is 25.1 µM (inconclusive).
For `COC(=O)Cn1nc(-c2ccccc2)n(-c2ccccc2)c1=S`, in series [2] (read-out: AC50), the concentration at half-maximal activity (AC50) is 20 µM (inconclusive).
As to `CN(C)CCCNC(=O)c1ccc(Cl)c(S(=O)(=O)N(C)c2ccccc2)c1`, the EC50 (in general, the concentration that produces a half-maximal response) in series [3] is 0.524 µM (active); in series [4], > 60 µM (not active).
As to `CC(=O)O/C(=C1/C[C@H]2[C@@H]3CC=C4C[C@@H](OC(C)=O)CC[C@]4(C)[C@@H]3CC[C@]2(C)C1=O)C(F)(F)F`, the AC50 in series [5] was 5.01 µM (inconclusive); in series [6], 3.16 µM (inconclusive).
Take `O=[N+]([O-])c1ccccc1/C=N/N1CCN(c2ccncc2S(=O)(=O)N2CCCCC2)CC1`: the EC50 is 0.55 µM (active) in series [3] and > 60 µM (not active) in series [4].
`CN(C)CCC=C1c2ccccc2CCc2ccccc21` [AMITRIPTYLINE]: the half-maximal activity concentration (AC50) in series [5] was 15.8 µM (inconclusive).
Regarding `COc1ccc(CNc2ncnc3ccc(-c4ccccc4C#N)cc23)c(OC)c1`, the AC50 in series [6] was 0.794 µM (inconclusive).
For the molecule `COc1ccccc1NC(=O)CSc1nc2ccccc2cc1Cc1ccccc1`, the AC50 was 3.55 µM (inconclusive) in series [5] and 0.0631 µM (inconclusive) in series [6].
For the molecule `COc1cc(/C=N\NC(=O)c2cccnc2)ccc1OC(=O)c1ccccc1Cl`, in series [1], the IC50 was > 79 µM (inactive).
With `O=C(c1ccc(-c2ccccc2)cc1)C1CCCN(Cc2ccncc2)C1` (centres undefined), the results for the 50% effective concentration (EC50) in series [3] and in series [4] were 1.47 µM (active) and > 60 µM (not active), respectively.
Turning to `O=c1oc2c(CN3CCOCC3)c(O)ccc2c2ccccc12`, the AC50 in series [6] is 20 µM (inconclusive).
For the molecule `CC(C)CN(C(=O)c1ccc([N+](=O)[O-])s1)c1c(N)n(Cc2ccccc2)c(=O)[nH]c1=O`, the EC50 in series [3] is 0.783 µM (active); in series [4] it was > 60 µM (not active).
In the case of `COc1cc(CNC(C)(C)CO)ccc1OCC(=O)Nc1ccc(Br)cc1`, the AC50 in series [6] is 39.8 µM (inconclusive).
Same read-out and setting: as for `COC(=O)c1sccc1NC(=O)CN(C)NS(=O)(=O)c1ccc(F)cc1`, the figure is 28.2 µM (inconclusive).
`CC(=O)c1ccccc1OCCCN1CCCCC1`: in series [1], the IC50 was > 79 µM (inactive).
In the case of `CCNc1ncc2nc(-c3ccc(F)cc3)c(=O)n(Cc3ccc(F)cc3)c2n1`, the AC50 in series [5] is 20 µM (inconclusive).
For `O=C(Cn1ccnc1[N+](=O)[O-])NCCO` [ETANIDAZOLE], in series [2], the AC50 result is “inconclusive”.
With `Cn1cc(-c2nc3cncnc3n(CCN)c2=O)c2ccccc21`, the AC50 in series [2] (read-out: AC50) is 31.6 µM (inconclusive); in series [6] it was 15.8 µM (inconclusive).
With `CC(=O)NCCNc1cc(-c2ccccc2C(F)(F)F)ncn1`, the AC50 in series [5] was 25.1 µM (inconclusive).
Turning to `CN(C)CCCN/C=C1/C(=O)N(Cc2ccc3c(c2)OCO3)C(=O)c2ccccc21`, the concentration for a half-maximal effect (EC50) was < 0.1 µM (active) in series [3] and 10.1 µM (active) in series [4].
For `COc1ccc(-c2cc(C3CCN(Cc4ccc([N+](=O)[O-])cc4)CC3)[nH]n2)cc1`, the EC50 in series [3] is 1.1 µM (active); in series [4] it was > 60 µM (not active).
On the same counts, the results for `O=C(CN1C(=O)COc2ccccc21)N(Cc1cccnc1)Cc1ccccc1F` are 0.26 µM (active) and > 60 µM (not active).
Take `COc1ccc(-c2csc(NC(=O)CCCc3nc(O)c4ccccc4n3)n2)cc1OC`: the IC50 in series [1] was > 79 µM (inactive).
As to `OC(COc1ccc(OCC(O)CN2CCN(Cc3ccccc3)CC2)cc1)CN1CCN(Cc2ccccc2)CC1` (centres undefined), the EC50 in series [3] was 0.789 µM (active); in series [4], > 60 µM (not active).
Regarding `N#Cc1cc2ccccc2nc1SCC(=O)Nc1ccc(S(=O)(=O)N2CCCC2)cc1`, the 50% effective concentration (EC50) was 2.83 µM (active) in series [3] and 9.37 µM (active) in series [4].
In the case of `CCN(C(=O)c1cc2c(O)nc3ccc(C)cc3c2s1)c1ccccc1C`, the EC50 in series [3] is 0.857 µM (active); in series [4], > 60 µM (not active).
Turning to `CC1=C2[C@@H]3OC(=O)[C@@H](C)[C@@H]3CC[C@]2(C)C=CC1=O`, the AC50 in series [5] is 10 µM (inconclusive).
With `O=C(C1=C[C@H](C2CC2)C[C@H](OCc2ccc(CO)cc2)O1)N1CCN(Cc2ccccc2)CC1`, the EC50 is 0.541 µM (active) in series [3] and > 60 µM (not active) in series [4].
For the molecule `N=c1sccn1CC(=O)Nc1cccc(Oc2ccccc2)c1`, the AC50 in series [5] was 6.31 µM (inconclusive); in series [6] it was 20 µM (inconclusive).
Consider `CCN(CC)CCN(C(=O)c1ccc2c(c1)OCCO2)c1nc2ccc(C)cc2s1`, for which the results for the EC50 in series [3] and in series [4] were 0.457 µM (active) and > 60 µM (not active), respectively.
Regarding `CN(CC(=O)Nc1ccccc1Cl)C(=O)CCc1nc(O)c2ccccc2n1`, in series [1], the IC50 is 23.8 µM (active).
For `COc1cccc(C(CC(=O)Nc2cccc3ccccc23)NC(=O)c2ccccc2)c1` (centres undefined), in series [2] (read-out: AC50), the AC50 was 0.631 µM (inconclusive).
In the case of `CCN1CCN(Cc2cccc(Oc3ccccc3)c2)CC1`, the EC50 in series [3] is 1.44 µM (active); in series [4] it was > 30 µM (not active).
As to `CCCCCNc1nc(-c2ccccc2)nc(-n2ccnc2)n1`, the EC50 in series [3] is 1.55 µM (active); in series [4] it was > 60 µM (inconclusive).
`CC(=O)Nc1ccc(-c2cc(-c3ccc(NC(C)=O)cc3)nc(-c3ccccc3)n2)cc1`: the AC50 in series [2] (read-out: AC50) is 1.78 µM (inconclusive).
On to `NS(=O)(=O)c1ccc(NC(=O)Nc2cccc3ccccc23)cc1`, for which the AC50 in series [5] was 1 µM (inconclusive).
For `COC(=O)c1ccc(C#CC(NP(=O)(c2ccccc2)c2ccccc2)c2ccccc2)cc1` (centres undefined), the AC50 in series [2] (read-out: AC50) and in series [5] was 20 µM (inconclusive) in each case.
As to `COc1cc(-c2nnc(-c3cc(-c4ccccc4)nc4ccccc34)o2)cc(OC)c1OC`, the IC50 in series [1] was 10.5 µM (active).
For `COC(=O)[C@@]1(Cc2ccc(F)cc2)[C@H]2c3cc(C(=O)N4CCCC4)n(CCc4ccc(O)c(O)c4)c3C[C@H]2CN1C(=O)c1ccccc1`, in series [5], the AC50 was 20 µM (inconclusive).
On to `CCOC(=O)c1cnc2ccc(OCC)cc2c1N1CCN(c2ccccc2OC)CC1`, for which the results for the EC50 in series [3] and in series [4] were 1.19 µM (active) and > 60 µM (not active), respectively.
In the case of `O=C(CNC(=O)c1cccc(F)c1)N/N=C/c1cc(Br)ccc1OC(=O)/C=C/c1ccco1`, in series [1], the IC50 is > 79 µM (inactive).
`COc1ccccc1NC(=O)c1ccc(NC(=O)Cc2nnc(O)c3ccccc23)cc1`: the IC50 in series [1] is > 79 µM (inactive).
`Cc1[nH]n(-c2ccc(S(=O)(=O)O)cc2)c(=O)c1/N=N\c1ccccc1`: in series [2], the AC50 result is reported as “inconclusive”.
Regarding `Cc1cccc(/N=C/c2c(O)ccc3oc4c(c23)CCCC4)n1`, the IC50 in series [1] is > 79 µM (inactive).
For the molecule `Cc1ccc(-c2nnc(Nc3ccc(CC(N)=O)cc3)c3ccccc23)cc1`, the EC50 was 0.208 µM (active) in series [3] and > 60 µM (not active) in series [4].
Take `CCOC(=O)CSc1nc(O)c2c(C)c(C)sc2n1`: the IC50 in series [1] is 10.2 µM (active).
On to `O=C1Nc2ccccc2Oc2cc([N+](=O)[O-])ccc21`, for which the EC50 in series [3] was 1.46 µM (active); in series [4] it was 9.78 µM (active).
Consider `COc1ccc(-c2cc(-c3nnc(COC(=O)C4CC4C)o3)c3ccccc3n2)cc1OC` (centres undefined), for which the IC50 in series [1] is 8.29 µM (active).
As for `COC(=O)c1nnn(Cc2ccccc2)c1N`, the AC50 in series [5] is 0.126 µM (inconclusive).
For `COc1ccc(-n2nc(C(=O)NCC(=O)Nc3cc(OC)c(OC)c(OC)c3)c3ccccc3c2=O)cc1Cl`, in series [1], the IC50 is > 79 µM (inactive).
For `O=C(CSc1nc(O)c2ccccc2n1)c1ccccc1`, the IC50 in series [1] is > 79 µM (inactive).
With `CC(=O)Nc1cccc(/C(C)=N/NC(=O)c2cccs2)c1`, the IC50 in series [1] is > 79 µM (inactive).
Regarding `O=C(NCc1cccnc1)C1COc2ccccc2O1` (centres undefined), in series [6], the AC50 is 20 µM (inconclusive).
For `COC(=O)c1c(-c2ccccc2)csc1NC(=O)CSc1ncnc2sc(C)c(C)c12`, the AC50 in series [2] (read-out: AC50) is 1 µM (inconclusive).
As to `O=C(c1c[nH]c(=O)n(-c2ccccc2)c1=O)N1CCc2ccccc21`, the AC50 in series [2] (read-out: AC50) was 6.31 µM (inconclusive); in series [5], 0.0794 µM (inconclusive).
On to `CCOC(=O)Cc1csc(SCc2cc(=O)oc3cc(O)ccc23)n1`, for which the IC50 in series [1] was > 79 µM (inactive).
`O=C(Nc1ccccc1C(=O)O)c1ccc2ccccc2n1`: the AC50 in series [5] is 5.01 µM (inconclusive).
Regarding `CCc1ccc(C(=O)COC(=O)C(Cc2ccccc2)NC(=O)C2CCC(C)CC2)cc1` (centres undefined), in series [2] (read-out: AC50), the AC50 was 0.0708 µM (inconclusive).
Consider `CS(=O)(=O)Nc1ccc([N+](=O)[O-])cc1Oc1ccccc1` [NIMESULIDE], for which the AC50 in series [5] was 12.6 µM (inconclusive).
Turning to `CCCC(=O)Nc1cccc(Oc2nc(C)cc(C)c2C#N)c1`, the AC50 in series [6] is 10 µM (inconclusive).
